Reference: publication PMC9413144, “Similar 5F-APINACA Metabolism between CD-1 Mouse and Human Liver Microsomes Involves Different P450 Cytochromes” (Metabolites, 2022)

Columns and labels:
[1] = tested on: mouse Cyps in CD-1 mouse liver microsomes; test: Chemical inhibitor phenotyping of 5F-APINACA reactions, CD-1 mouse liver microsomes; type: in vitro ADME; conditions: 25 µM 5F-APINACA
Protocol: Inhibitor phenotyping experiments were carried out to qualitatively identify probable P450 isozymes catalyzing 5F-APINACA metabolic pathways present in our mouse and human liver microsome studies. Reactions contained 0.1 mg/mL protein (MLM or HLM), 25 µM 5F-APINACA, specific CYP inhibitors, 0.25% methanol, 1% acetonitrile, 1.0 mM NADPH-regenerating system, and 100 mM phosphate buffer, pH 7.4. […] For each experiment, the following were included as final concentrations: 10 µM furafylline for CYP1A2, 2 µM tranylcypromine (TCP) for CYP2A6, 3 µM ticlopidine (TIC) for CYP2B6, 16 µM montelukast (MTK) for CYP2C8, 10 µM sulfaphenazole (SPA) for CYP2C9, 16 µM (+)-N-3-benzylnirvanol (NBZ) for CYP2C19, 2 µM quinidine (QND) for CYP2D6, 30 µM 4-methylpyrazole (4MP) for CYP2E1, 1 µM ketoconazole (KCZ) for CYP3A4, and 1000 µM ABT for all CYPs. Each inhibitor stock solution (except FUR) was prepared in potassium phosphate buffer pH 7.4 with 1% acetonitrile (final) as a co-solvent. After a preincubation period of 15 min with shaking, the reactions were initiated with the addition of a NADPH-regenerating system and shaken. […] After 30 min, all reactions were quenched, processed, and analyzed by HPLC as previously described. […]
Sample reactions were analyzed to quantitate metabolites by absorbance. […] Parent drug and metabolite responses were normalized to the internal standard acenocoumarol and quantitated using a standard curve generated with 5OH-APINACA. The absorbance response corresponds to the indazole ring, which remained unmodified in these reactions, so that the relative absorbance response for all analytes were approximately the same, making inference for quantitation purposes possible.
(§1) Various statistical approaches were employed among the experimental studies to identify the most likely models for explaining the data or establish the significance of the findings. For the explicit kinetic models, the best-fit kinetic model and corresponding constants were determined using the extra sum-of-squares F test. […]

[2] = tested on: human CYPs in human liver microsomes; test: Chemical inhibitor phenotyping of 5F-APINACA reactions, human liver microsomes; type: in vitro ADME; conditions: 25 µM 5F-APINACA; for effect of inhibitor on formation of 5F-APINACA metabolites: 0.1 mg/mL HLM, 1000 µM ABT, 1 µM ketoconazole
Protocol: Inhibitor phenotyping experiments were carried out to qualitatively identify probable P450 isozymes catalyzing 5F-APINACA metabolic pathways present in our mouse and human liver microsome studies. Reactions contained 0.1 mg/mL protein (MLM or HLM), 25 µM 5F-APINACA, specific CYP inhibitors, 0.25% methanol, 1% acetonitrile, 1.0 mM NADPH-regenerating system, and 100 mM phosphate buffer, pH 7.4. […] For each experiment, the following were included as final concentrations: 10 µM furafylline for CYP1A2, 2 µM tranylcypromine (TCP) for CYP2A6, 3 µM ticlopidine (TIC) for CYP2B6, 16 µM montelukast (MTK) for CYP2C8, 10 µM sulfaphenazole (SPA) for CYP2C9, 16 µM (+)-N-3-benzylnirvanol (NBZ) for CYP2C19, 2 µM quinidine (QND) for CYP2D6, 30 µM 4-methylpyrazole (4MP) for CYP2E1, 1 µM ketoconazole (KCZ) for CYP3A4, and 1000 µM ABT for all CYPs. Each inhibitor stock solution (except FUR) was prepared in potassium phosphate buffer pH 7.4 with 1% acetonitrile (final) as a co-solvent. After a preincubation period of 15 min with shaking, the reactions were initiated with the addition of a NADPH-regenerating system and shaken. For FUR, the inhibitor was prepared in methanol and a microsomal reaction was carried out at 10 µM for 10 min prior to addition of 5F-APINACA. After 30 min, all reactions were quenched, processed, and analyzed by HPLC as previously described. The resultant values were normalized to reaction rates observed in absence of inhibitors to yield a percent inhibition value.
Sample reactions were analyzed to quantitate metabolites by absorbance. Analytes were separated on a Waters XBridge BEH C18 3.5 μM column (4.6 mm × 100 mm) using an Agilent 1100 series HPLC instrument equipped with a VWD detector (280 nm). The mobile phase consisted of solvent A (10% solvent B, 90% water) and solvent B (0.1% formic acid/acetonitrile). A gradient method started at 80% solvent A for the first minute, then decreased to 70% for the next 6 min. […] Parent drug and metabolite responses were normalized to the internal standard acenocoumarol and quantitated using a standard curve generated with 5OH-APINACA. The absorbance response corresponds to the indazole ring, which remained unmodified in these reactions, so that the relative absorbance response for all analytes were approximately the same, making inference for quantitation purposes possible.
as §1

[3] = biological target: CD-1 mouse liver microsomes; test: Steady-state kinetics for 5F-APINACA metabolism by CD-1 mouse liver microsomes; type: in vitro ADME
Protocol: (§2) The in vitro 5F-APINACA analyses relied on reactions with human liver microsomes 150 (HLM150) as a model for the average adult human liver and CD-1 mouse liver microsomes as the standard for SCB studies. In a 96-half-well microplate, reaction conditions included human or mouse liver microsomes in 100 mM potassium phosphate buffer pH 7.4, 0.1% methanol (co-solvent), and 5F-APINACA concentrations ranging from 0 to 250 µM. The microplates were preincubated for 15 min at 37 °C with shaking at 350 rpm using a BMG Labtech THERMOstar incubator (Ortenberg, Germany). The addition of an NADPH-regenerating system (4 U/mL glucose-6-phosphate dehydrogenase, 12 mM glucose 6-phosphate, 12 mM MgCl2, 4 mM NADP^+) initiated the reaction. Reactions were quenched by adding an equal volume of ice-cold acetonitrile containing an internal standard (2 μM acenocoumarol final). Samples were chilled on ice for 10 min to optimize precipitation of proteins in phosphate buffer. After 3500 rpm centrifugation at 4 °C for 15 min using a Sorvall ST 16R centrifuge (Thermo Scientific; Waltham, MA, USA), the supernatant was transferred to HPLC vials for HPLC analyses. Standards for metabolite quantifications were prepared with human or mouse liver microsomes in 100 mM potassium phosphate buffer pH 7.4, 0.1% methanol (co-solvent), and 5OH-APINACA concentrations ranging from 0 to 15 µM. The microplates were preincubated for 15 min at 37 °C with shaking at 350 rpm. Reactions were initiated upon addition of the NADPH-regenerating system or 100 mM potassium phosphate as a negative control. For kinetic studies, initial control experiments were carried out to determine the lowest protein concentration and optimal reaction time within the linear response range for all observed metabolites reflecting steady-state conditions. Each set of steady-state reactions were performed at least in triplicate and replicated two times at a minimum. The composition of reactions was determined by liquid chromatographic analysis involving detection of analytes via UV/visible absorbance and mass spectroscopy (Section 2.5).
(§3) We employed explicit equations and numerical methods to model kinetic profiles. In the first case, metabolite levels were used to calculate initial reaction rates for plotting against substrate concentration with GraphPad Prism 9.2 from GraphPad Software, Inc. (San Diego, CA, USA). […] For the numerical methods, ordinary differential equations (ODEs) describing single-substrate (ES) and multi-substrate (ESS) binding kinetics were initially used to fit the models to the primary metabolite formation datasets. The AICc was used to determine the most appropriate model for the same dataset. Predicted parameter estimates from the most appropriate model were then used as initial parameter estimates for a variety of enzyme–substrate–sequential metabolism (ESP1P2P3) models. Schemes included fast- and slow-release rates of metabolite P2 from the enzyme site, either after the first binding event, the second binding event, or both events. A final best-fit model was selected based on AICc values, weighted residuals, and parameter estimate errors. For comparison of all multi-substrate-sequential metabolism models, including the final integrated model, all metabolite data were used simultaneously for model fitting. All association rate constants were fixed at 270 μM^−1 min^−1. When any rate constant within the model had to be held constant, a sensitivity analysis was performed over a range of values to ensure the validity of the results. Based on preliminary model fitting attempts, consistent enzyme kinetic schemes were developed for fitting to both human and CD-1 mouse liver microsomal reaction datasets. Mathematica version 12.3 (Wolfram Research, Champaign, IL, USA) was used for model fitting. The ODEs were numerically solved with NDSolve to provide interpolated functions of each enzyme species. […]

[4] = biological target: pooled human liver microsomes (HLM150); test: Steady-state kinetics for 5F-APINACA metabolism by pooled human liver microsomes; type: in vitro ADME
Protocol: as §2, §3

mice = tested on: mice; parameters: method as in PMID 30420360, PMID 32413436; conditions: with 1-aminobenzotriazole (ABT); cited from earlier work
[5] = Combined adamantyl hydroxylation pathway, parentheses 95% confidence interval
[6] = formation of the metabolite from 5F-APINACA, parentheses 95% confidence interval
[7] = global fit to differential rate equations, calculated from micro-rate constants, parentheses standard error
[8] = global fit to differential rate equations, parentheses standard error
[9] = global fit to differential rate equations, second substrate binding (ESS), parentheses standard error

## N-(1-adamantyl)-1-(5-pentyl)-1H-indazole-3-carboxamide [5F-APINACA]
[1]; CD-1 microsomes
  contribution of CYPs to metabolism: sole role of CYPs
[1]; human CYP inhibitors
  dominant isozyme carrying out metabolic reactions: Cyp3a11
[1]; implicated by inhibitor for CYP2C19
  other dominant contributors to adamantyl hydroxylation, but minor contributors to oxidative defluorination: Cyp2c37, Cyp2c50, and Cyp2c54
[2]; chemical inhibitor phenotyping
  dominant isozyme for both pathways: CYP3A4
  isozymes with minor contributions to metabolism: CYP2C8, 2C19, and 2D6
[3]; [5]
  Ki (substrate inhibition): 220 (74–1300) µM
  Vmax: 465 (330–730) pmol min^−1 mg protein^−1
[3]; Combined adamantyl hydroxylation pathway, parentheses 95% confidence interval, read-out: Km or Kh
  Km: 3.8 µM
[4]; [5]
  Ki (substrate inhibition): 300 (150–790) µM
  Km: 3.3 µM
  Vmax: 400 (330–510) pmol min^−1 mg protein^−1
mice
  hypothermia in mice on suppression of metabolism by pan-CYP inhibitor ABT: increased hypothermia

## CC(=O)N1CCN(c2ccc(OCC3COC(Cn4ccnc4)(c4ccc(Cl)cc4Cl)O3)cc2)CC1 (centres unmarked) [ketoconazole, reference compound]
[2]
  effect of inhibitor on formation of 5F-APINACA metabolites: inhibition of these pathways

## Nn1nnc2ccccc21 [ABT, 1-aminobenzotriazole, reference compound]
[2]
  effect of inhibitor on formation of 5F-APINACA metabolites: completely blocked the formation of all metabolites

## O=C(NC12CC3CC(CC(C3)C1)C2)c1nn(CCCCCO)c2ccccc12 [5OH-APINACA]
[3]; [6]
  Vmax: 690 (650–730) pmol min^−1 mg protein^−1
  h (Hill coefficient): 1.4 (1.0–1.8)
[3]; [7]
  Km1: ((k2 + k3 + k4)/k1) 3.75 (0.21) µM
[3]; [8]
  kcat1/Km1: 0.238 (0.017) mL min^−1 nmol^−1
[3]; global fit to differential rate equations, rates normalized to total CYP (0.67 μM), parentheses standard error
  kcat1: k3 0.89 (0.04) min^−1
[3]; [9]
  Km2: ((k6 + k7 + k8)/k5) 122 (6) µM
  kcat2: k7 1.17 (0.05) min^−1
  kcat2/Km2: 0.0096 (0.0006) mL min^−1 nmol^−1
[4]; formation of the metabolite from 5F-APINACA, 0.1 mg/mL protein, parentheses 95% confidence interval
  Vmax: 465 (446–485) pmol min^−1 mg protein^−1
[4]; [7]
  Km1: ((k2 + k3 + k4)/k1) 5.69 (0.35) µM
[4]; [8]
  kcat1/Km1: 0.193 (0.015) mL min^−1 nmol^−1
[4]; global fit to differential rate equations, rates normalized to total CYP (0.38 μM), parentheses standard error
  kcat1: k3 1.10 (0.35) min^−1
[4]; [9]
  Km2: ((k6 + k7 + k8)/k5) 181 (10) µM
  kcat2: k7 1.23 (0.1) min^−1
  kcat2/Km2: 0.0065 (0.0013) mL min^−1 nmol^−1
